{"source": "paper PMC4001449", "about": "“Thienoquinolines as Novel Disruptors of the PKCε/RACK2 Protein–Protein Interaction” (Journal of Medicinal Chemistry, 2014)", "key": {"[1]": {"biological_target": "T1, PKCε (Homo sapiens, UniProt Q02156)", "T1 sequence (Q02156 1-737)": "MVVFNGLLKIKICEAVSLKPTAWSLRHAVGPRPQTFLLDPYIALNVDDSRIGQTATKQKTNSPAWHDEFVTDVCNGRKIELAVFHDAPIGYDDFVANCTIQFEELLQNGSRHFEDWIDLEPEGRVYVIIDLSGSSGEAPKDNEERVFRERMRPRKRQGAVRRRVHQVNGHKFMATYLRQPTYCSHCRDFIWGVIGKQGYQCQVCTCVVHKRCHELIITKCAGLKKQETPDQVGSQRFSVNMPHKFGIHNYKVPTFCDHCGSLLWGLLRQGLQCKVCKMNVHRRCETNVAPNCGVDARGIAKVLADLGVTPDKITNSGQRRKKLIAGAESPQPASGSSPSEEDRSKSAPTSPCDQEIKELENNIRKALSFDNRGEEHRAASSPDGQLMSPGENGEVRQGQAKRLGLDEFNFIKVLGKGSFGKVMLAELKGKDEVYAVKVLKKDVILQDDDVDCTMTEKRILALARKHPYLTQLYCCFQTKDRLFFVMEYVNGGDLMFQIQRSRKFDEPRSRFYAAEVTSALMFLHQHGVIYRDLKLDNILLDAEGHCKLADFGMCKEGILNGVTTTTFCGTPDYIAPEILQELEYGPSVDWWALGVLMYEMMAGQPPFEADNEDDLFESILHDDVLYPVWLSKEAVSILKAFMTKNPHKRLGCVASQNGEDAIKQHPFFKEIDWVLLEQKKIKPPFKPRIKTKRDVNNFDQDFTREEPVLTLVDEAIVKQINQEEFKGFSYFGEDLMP", "assay": "PKC isozyme assay, PKCε", "assay_type": "biochemical", "settings": "50 µM, Supp. Figure 2", "method": "Supporting Information Figure 2. Effect of compound 8 on PKC isozymes. 50 µM of compound\n8 were used in the PKC assays as described in Gruber et al., J. Biochem. 2011, 149, 331-336. *p\n= 0.015, **p = 0.0028, ***p = 0.0007. The control is standardized (100%). Therefore, the\nstandard deviation for the control is 0.\n(1 picture or pasted object on this page, not shown here)"}, "[2]": {"biological_target": "T2, PKCε/RACK2 interaction (Homo sapiens, UniProt P35606)", "T2 sequence (P35606 1-906)": "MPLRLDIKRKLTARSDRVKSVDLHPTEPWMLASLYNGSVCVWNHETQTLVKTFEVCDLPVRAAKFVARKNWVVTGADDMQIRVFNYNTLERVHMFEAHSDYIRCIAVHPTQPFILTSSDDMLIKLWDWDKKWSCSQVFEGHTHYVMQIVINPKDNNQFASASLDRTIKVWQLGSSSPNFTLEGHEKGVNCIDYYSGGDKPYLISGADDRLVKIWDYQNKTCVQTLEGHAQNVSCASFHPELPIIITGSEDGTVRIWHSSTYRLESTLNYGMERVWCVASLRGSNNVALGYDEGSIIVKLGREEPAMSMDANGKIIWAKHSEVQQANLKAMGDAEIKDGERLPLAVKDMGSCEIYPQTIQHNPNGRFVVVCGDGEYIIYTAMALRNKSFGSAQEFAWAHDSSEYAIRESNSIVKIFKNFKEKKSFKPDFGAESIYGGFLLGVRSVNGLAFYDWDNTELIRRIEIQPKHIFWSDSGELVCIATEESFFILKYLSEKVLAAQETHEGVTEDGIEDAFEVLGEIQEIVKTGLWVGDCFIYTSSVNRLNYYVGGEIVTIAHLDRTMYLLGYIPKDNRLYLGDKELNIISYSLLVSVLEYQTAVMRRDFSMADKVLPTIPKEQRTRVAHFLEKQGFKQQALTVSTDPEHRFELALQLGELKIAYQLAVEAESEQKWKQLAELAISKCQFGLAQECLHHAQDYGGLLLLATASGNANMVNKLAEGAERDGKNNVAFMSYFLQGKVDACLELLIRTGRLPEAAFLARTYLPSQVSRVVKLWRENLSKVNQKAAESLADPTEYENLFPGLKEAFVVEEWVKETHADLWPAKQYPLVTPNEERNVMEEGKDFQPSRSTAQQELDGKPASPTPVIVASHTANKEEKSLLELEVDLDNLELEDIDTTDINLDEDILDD", "assay": "PKCε/RACK2 in vitro binding assay (ELISA-based)", "settings": "25 μM solution, Figure 2A", "method": "Recombinant RACK2 tagged with maltose-binding protein (RACK2-MBP) was purified on columns with amylose resin (New England Biolabs, Ipswich, MA) as described by the manufacturer. The recombinant protein was analyzed by Coomassie Blue staining and Western blotting after SDS–PAGE. Aliquots were stored in liquid nitrogen. The interaction between PKCε and RACK2 was measured using an ELISA-based assay. The 96-well EIA/RIA high binding plates (Costar) were coated with 100 ng of recombinant PKCε (ProQinase, Freiburg, Germany) in buffer A (20 mM Tris-HCl/100 mM NaCl, pH 7.5) at 4 °C on a shaker with gentle agitation overnight. The plate was washed twice with 225 μL/well buffer A. After blocking of unspecific binding sites with 225 μL of sterile-filtered 3% bovine serum albumin (BSA; Sigma-Aldrich, St. Louis, MO) in buffer A at room temperature for 3 h, the plate was washed twice with 225 μL of this buffer. PKCε was left untreated or activated by addition of 60 μg/mL phosphatidylserine (Sigma-Aldrich) and 100 nM TPA (Sigma-Aldrich) in a volume of 50 μL of buffer A for 10 min at 30 °C. […] Color development was measured on a plate reader at a wavelength of 420 nm."}, "[3]": {"biological_target": "ERK1 (Homo sapiens, UniProt P27361)", "sequence (P27361 whole entry, species assumed)": "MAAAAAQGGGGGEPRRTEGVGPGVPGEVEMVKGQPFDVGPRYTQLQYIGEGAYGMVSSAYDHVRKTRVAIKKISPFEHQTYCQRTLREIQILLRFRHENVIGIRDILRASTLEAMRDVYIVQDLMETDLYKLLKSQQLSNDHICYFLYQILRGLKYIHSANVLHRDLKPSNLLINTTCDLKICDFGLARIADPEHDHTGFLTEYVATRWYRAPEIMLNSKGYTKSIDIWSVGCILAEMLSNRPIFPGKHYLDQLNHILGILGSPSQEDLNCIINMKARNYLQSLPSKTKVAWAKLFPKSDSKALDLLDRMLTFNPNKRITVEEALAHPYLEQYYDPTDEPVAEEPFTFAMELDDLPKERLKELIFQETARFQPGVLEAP", "assay": "Kinase profiling (Dundee), ERK1", "assay_type": "biochemical", "settings": "25 μM solution"}}}
{"smiles": "CC(=O)c1cccc(NC(=O)c2sc3nc4cc5c(cc4cc3c2N)OCCO5)c1", "note": "[Compound 8, N-(3-acetylphenyl)-9-amino-2,3-dihydro-1,4-dioxino[2,3-g]thieno[2,3-b]quinoline-8-carboxamide]", "values": [{"measurement": "Inhibition of PKCε in vitro", "setting": "[1]", "value": "does not inhibit"}, {"measurement": "PKCε/RACK2 interaction, % of untreated controls", "setting": "[2]", "value": "approximately 10 % of untreated controls"}, {"measurement": "ERK1 activity, % of control", "setting": "[3]", "value": "55 % of control"}]}
